# In publication PMC6514909, “Synthesis of New Derivatives of Benzofuran as Potential Anticancer Agents” (Molecules, 2019):
# Experiments:
# [1] = system: MOLT-4 (leukemia) cells; test: MTT cytotoxicity assay, MOLT-4; assay type: cell-based, human
# Protocol: (§1) Fourteen new benzofuran derivatives were tested for their cytotoxic properties in K562, MOLT-4 (leukemia, suspension cells), HeLa (cervix carcinoma, adherent cells), and normal endothelial cells (HUVEC). First, we measured the viability of cells after 48 h incubation with the given compound at the concentration of 100 μM. Next, for compounds that reduced cancer cells survival for more than 50%, we determined IC50 values. Cells that were exposed to 1% DMSO (a vehicle) served as the control with 100% survival. Cells treated with 1 µM staurosporine served as the internal control of the cytotoxicity experiments.
# (§2) Human umbilical vein endothelial cells (Life Technologies, Waltham, MA, USA) were cultured (according to the manufacturer instructions) in Medium 200 supplemented with Low Serum Growth Supplement. 1 × 10^4 HUVEC cells were seeded on each well on a 96-well plate (Nunc). The HeLa (human cervix carcinoma) K562 and MOLT-4 (leukemia) cells were cultured in RPMI 1640 medium supplemented with antibiotics and 10% fetal calf serum (HeLa, K562) in a 5% CO2-95% air atmosphere. 7 × 10^3 HeLa, K562, or MOLT-4 cells were seeded on each well on 96-well plate (Nunc). 24 h later cells were treated with the test compounds and then incubated for an additional 48 hours. Stock solutions of test compounds were freshly prepared in DMSO (dimethylsulfoxide). The final concentrations of compounds that were tested in the cell cultures were: 2 × 10^−1, 1 ×10^−1, 5 × 10^−2, 1 × 10^−2, 1 × 10^−3 and 1 × 10^−4 mM. The concentration of DMSO in the cell culture medium was 1%.
# (§3) The values of IC50 (the concentration of test compound that is required to reduce the cell survival fraction to 50% of the control) were calculated from dose-response curves and used as a measure of cellular sensitivity to a given treatment.
# (§4) The MTT [3-(4,5-dimethylthiazol-2-yl)-2,5-diphenyltetrazolium bromide; Sigma, St. Louis, MO, USA] assay determined the cytotoxicity of all the compounds, as described previously. Briefly, after 24 h or 48 h of incubation with the drug, the cells were treated with the MTT reagent, and incubation was continued for 2 h. MTT-formazan crystals were dissolved in 20% SDS and 50% DMF at pH 4.7 and absorbance was read at 570 and 650 nm on an ELISA-PLATE READER (FLUOstar Omega, BMG LABTECH GmbH, Ortenberg, Germany). As a control (100% viability), cells that were grown in the presence of medium vehicle only with 1% DMSO were used.
# [2] = system: cancer cell lines; test: MTT cytotoxicity, cancer cell lines overall; assay type: cell-based, human; settings: compared to lead compounds VIII-X
# Protocol: as §1, §2, §3, §4
# [3] = system: K562 (leukemia) cells; test: MTT cytotoxicity assay, K562; assay type: cell-based, human; settings: initial screening, 100 μM, 48 h
# Protocol: as §1, §2, §3, §4
# [4] = system: HeLa (human cervix carcinoma) cells; test: MTT cytotoxicity assay, HeLa; assay type: cell-based
# Protocol: as §1, §2, §3, §4
# [5] = system: plasmid DNA (pcDNA3.1 HisC); test: Digestion of plasmid DNA with BamHI restriction nuclease; assay type: biochemical; settings: 100 µM, overnight 37 °C, then BamHI 3 h; agarose gel
# Excerpt: We hypothesized that a possible explanation of observed cytotoxicity might be due to an interaction of test benzofurans with genomic DNA (e.g., by intercalation). To verify this hypothesis, we investigated whether the test benzofurans have any effect on digestion of a plasmid DNA (pcDNA3.1 HisC) with endonuclease BamH1. pcDNA3.1 HisC contains a unique BamH1 restriction site which allows for plasmid linearization. Plasmid DNA exists in linear, superhelical, and circular forms that differ in electrophoretic mobility (Figure 6 lane 1). Plasmid DNA was converted to a linear form upon digestion with BamH1 (lane 2). […] In the presence of test compounds, pcDNA3.1 HisC was partially digested with Bam H1 restriction enzyme (Figure 6 lanes 4–7). Most of the plasmid DNA was converted to a linear form, however there is a circular form still present.
# 0.5 μg of plasmid DNA (pcDNAHisC, total length 5.5 kbp) containing a unique BamHI restriction site was dissolved in a 1× BamHI reaction buffer and then incubated overnight at 37 °C with the test compounds or daunorubicin, a strong intercalating agent, which was used as a positive control. The concentration of the test compounds and daunorubicin samples was 100 µM. In the next step, the reaction mixtures were digested with BamHI restriction endonuclease (2 U/μL) for 3 h at 37 °C. The total reaction volume was 10 μL. Products of the reaction were subjected to the 1% agarose gel electrophoresis in TBE buffer. The gel was stained with ethidium bromide and DNA fragments were visualized under a UV lamp (GBox, Syngene, Cambridge, UK).
# Figure 6 Digestion of pcDNA3.1HisC (total length 5.5kbp) with BamH1 endonuclease. M—marker DNA; 1—not digested plasmid DNA; 2—plasmid DNA digested with BamH1 (DNA present in linear form); 3—plasmid DNA + daunorubicin + BamH1; 4—plasmid DNA + 1c + BamH1; 5—plasmid DNA + 2d + BamH1; 6—plasmid DNA + 1e + BamH1; and, 7—plasmid DNA + 3d + BamH1.
# [6] = system: caspase 3/7 in K562 cells; test: Apo-ONE Homogeneous Caspase-3/7 Assay in K562 cells; assay type: cell-based, human; settings: compound at 5 × IC50 (staurosporine 1 µM), 18 h, 1% DMSO normalized to 1.0
# Protocol: We have measured the activity of caspases 3 and 7 (caspase 3/7), which are markers of programmed cell death. […] The activity of caspase 3/7 was measured using pro-fluorescent peptide substrate.
# 20 × 10^3 K562 cells were seeded on each well of 96-well plate in RPMI 1640 medium supplemented with 10% fetal calf serum and antibiotics. Cells were grown for 24 h at 37 °C and 5% CO2. The test compounds were dissolved in DMSO and added to the cell culture. The concentration of tested benzo[b]furans in cell culture was 5 × IC50.
# Cells treated with 1% DMSO served as a negative control, while cells incubated with staurosporine (a strong inducer of apoptosis) were used as a positive control. Cells were exposed to test compounds for 18 h at 37 °C and 5% CO2. Subsequently, Apo-ONE® Homogeneous Caspase-3/7 Assay (Promega, Madison, WI, USA) measured the activity of caspase 3 and 7, according to the manufacturer’s instructions. Briefly, the cells were lysed and incubated for 1.5 h with profluorescent substrate for caspase 3 and 7. Next, fluorescence was read at an excitation wavelength of 485 nm and emission of 520 nm with FLUOStar Omega plate reader (BMG-Labtech, Ortenberg, Germany).
# Figure 5 Activity of caspase 3 and 7 in K562 cells treated with the test benzofurans 1c, 1e, 2d, 3d, or staurosporine for 18 h. Apoptosis was determined by Apo-ONE® Homogeneous Caspase-3/7 Assay (Promega, Madison, WI, USA). Abbreviations: DMSO—K562 cells treated with 1% DMSO. The caspase activation level in cells exposed to 1% DMSO was normalized to 1.0. Mean values +/− SD are shown.
# [7] = system: Human umbilical vein endothelial cells (HUVEC); test: MTT cytotoxicity assay, HUVEC; assay type: cell-based
# Protocol: as §1, §2, §3, §4
# [8] = system: healthy endothelial cells (HUVEC); parameters: method as in PMID 25482722, PMID 30465514; settings: previous studies; cited from earlier work
# [9] = system: cancer cells; parameters: method as in PMID 25482722, PMID 30465514; settings: previous studies; cited from earlier work
# [10] = system: HeLa cancer cells; parameters: method as in PMID 25482722, PMID 30465514; settings: previous studies; cited from earlier work
# [11] = system: HL-60 leukemic cell line; parameters: method as in PMID 25482722, PMID 30465514; settings: previous studies; cited from earlier work
# [12] = system: K562 leukemic cell line; parameters: method as in PMID 25482722, PMID 30465514; settings: previous studies; cited from earlier work
# [13] = initial screening, 100 μM, 48 h
compound,measurement,setting,value
"COC(=O)c1c(CBr)oc2cc(C(C)=O)c(O)cc12 [Compound 2d, Methyl 6-acetyl-2-(bromomethyl)-5-hydroxybenzofuran-3-carboxylate]",IC50,"[1]; Homo sapiens, MOLT-4, 48 h incubation with cells, MTT",35 µM
same,reduction of viability of MOLT-4 cells,[1]; [13],more than 50%
same,decrease of cytotoxicity against human cancer cells compared to the lead compounds VIII-X,[2],5–10 folds
same,reduction of viability of K562 cells,[3],more than 50%
same,IC50,"[4]; Homo sapiens, HeLa, 48 h incubation with cells, MTT",35 µM
same,reduction of viability of HeLa cells,[4]; [13],more than 50%
same,inhibition of digestion of plasmid DNA with BamH1 / interaction with DNA,[5],"to some extent, interact with DNA"
same,increase in the activity of caspase 3/7,[6],about two-fold
same,IC50,"[7]; Homo sapiens, HUVEC, 48 h incubation with cells, MTT",30 µM
same,cytotoxicity against human normal endothelial cells,[7]; [13],cytotoxic
COC(=O)c1c(C)oc2cc(C(=O)C(Br)Br)c(O)c(Br)c12 [IX],toxicity towards endothelial cells (HUVEC),[8],non-toxic
same,IC50 towards cancer cells,[9],in a few µM range
COc1cc2c(CBr)c(C(C)=O)oc2c(C(C)=O)c1OC [VIII],IC50,[8],> 1000 µM
same,IC50,[10],> 1000 µM
same,IC50,[11],0.1 µM
same,IC50,[12],5 µM
"COC(=O)c1c(C)oc2cc(C(=O)C(Br)Br)c(OC)cc12 [X, methyl 6-(dibromoacetyl)-5-methoxy-2-methylbenzofuran-3-carboxylate]",toxicity towards endothelial cells (HUVEC),[8],non-toxic
same,IC50 towards cancer cells,[9],in a few µM range
